According to ChEMBL document CHEMBL5523759, “Discovery of Novel HDAC3 Inhibitors with PD-L1 Downregulating/Degrading and Antitumor Immune Effects” (J Med Chem, 2024):
The source made the active and inactive calls. The calls are words filed in the database; no cut-off is given here.

What was measured:
[1] = test system: B16-F10; assay: Antiproliferative activity against mouse B16-F10 cells assessed as reduction in cell viability measured for 48 hrs by MTT assay; format: functional, cell-based; details: B16-F10, 48 h
[2] = target: Histone deacetylase 1 (Homo sapiens, UniProt Q13547); assay: Inhibition of human recombinant HDAC1 using Ac-Leu-Gly-Lys (Ac)-AMC as substrate preincubated with compound for 10 mins followed by substrate addition and measured after 45 mins by TECAN microtiter plate reader analysis
[3] = test system: B16-F10; assay: Induction of apoptosis in mouse B16-F10 cells at 1 uM measured for 48 hrs by Annexin-V/FITC staining based flow cytometry analysis relative to control; format: functional
[4] = test system: HepG2; assay: Antiproliferative activity against human HepG2 cells assessed as reduction in cell viability measured for 48 hrs by MTT assay; format: functional, cell-based; details: HepG2, 48 h
[5] = target: T1, Protein deacetylase HDAC6 (Homo sapiens, UniProt Q9UBN7); assay: Inhibition of human recombinant HDAC6 using Ac-Leu-Gly-Lys (Ac)-AMC as substrate preincubated with compound for 10 mins followed by substrate addition and measured after 45 mins by TECAN microtiter plate reader analysis
T1 sequence (Q9UBN7 whole entry): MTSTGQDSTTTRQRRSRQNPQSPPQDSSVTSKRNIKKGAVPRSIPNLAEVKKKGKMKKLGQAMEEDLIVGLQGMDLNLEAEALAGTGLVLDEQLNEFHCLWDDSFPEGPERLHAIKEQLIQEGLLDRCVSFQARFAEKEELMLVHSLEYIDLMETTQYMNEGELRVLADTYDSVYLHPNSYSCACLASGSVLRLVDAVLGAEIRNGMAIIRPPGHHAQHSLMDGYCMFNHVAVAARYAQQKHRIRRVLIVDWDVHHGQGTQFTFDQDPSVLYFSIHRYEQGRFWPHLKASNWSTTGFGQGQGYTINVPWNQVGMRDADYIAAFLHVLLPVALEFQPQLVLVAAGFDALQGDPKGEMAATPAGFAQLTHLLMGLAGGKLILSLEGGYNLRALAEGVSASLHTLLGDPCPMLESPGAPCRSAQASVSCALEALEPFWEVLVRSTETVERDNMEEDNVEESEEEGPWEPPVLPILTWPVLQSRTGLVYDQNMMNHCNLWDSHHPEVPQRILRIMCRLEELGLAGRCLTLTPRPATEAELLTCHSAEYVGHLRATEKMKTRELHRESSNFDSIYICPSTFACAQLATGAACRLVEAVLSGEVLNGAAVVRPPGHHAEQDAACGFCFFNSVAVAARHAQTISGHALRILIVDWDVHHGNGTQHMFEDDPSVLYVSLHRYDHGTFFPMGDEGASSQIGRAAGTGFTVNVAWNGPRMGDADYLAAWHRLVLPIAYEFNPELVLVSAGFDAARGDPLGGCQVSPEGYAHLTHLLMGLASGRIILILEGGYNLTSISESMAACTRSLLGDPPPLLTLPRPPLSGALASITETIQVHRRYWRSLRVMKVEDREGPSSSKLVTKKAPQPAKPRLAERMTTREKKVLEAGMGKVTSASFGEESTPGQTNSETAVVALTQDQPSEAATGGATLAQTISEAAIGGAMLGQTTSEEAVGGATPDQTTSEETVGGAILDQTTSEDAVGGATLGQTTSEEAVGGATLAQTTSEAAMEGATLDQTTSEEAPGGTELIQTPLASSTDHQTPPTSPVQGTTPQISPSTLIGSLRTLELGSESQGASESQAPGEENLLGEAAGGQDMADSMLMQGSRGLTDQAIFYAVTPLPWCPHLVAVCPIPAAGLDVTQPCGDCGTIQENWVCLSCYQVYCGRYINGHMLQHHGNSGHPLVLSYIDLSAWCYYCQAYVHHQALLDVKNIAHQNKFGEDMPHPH

[6] = test system: B16-F10; assay: Induction of apoptosis in mouse B16-F10 cells at 8 uM measured for 48 hrs by Annexin-V/FITC staining based flow cytometry analysis relative to control; format: functional
[7] = test system: Raji; assay: Antiproliferative activity against human Raji cells assessed as reduction in cell viability measured for 48 hrs by MTT assay; format: functional, cell-based
[8] = test system: B16-F10; assay: Cytotoxicity against mouse B16-F10 cells assessed as increase in dead cells at 0.5 to 8 uM measured for 48 hrs by calcein-AM/propidium iodide staining based analysis; format: functional, cell-based; details: dose 0.5-8 µM
[9] = target: T2, Histone deacetylase 8 (Homo sapiens, UniProt Q9BY41); assay: Inhibition of human recombinant HDAC8 using Ac-Leu-Gly-Lys (Tfa)-AMC as substrate preincubated with compound for 10 mins followed by substrate addition and measured after 45 mins by TECAN microtiter plate reader analysis
T2 sequence (Q9BY41 whole entry): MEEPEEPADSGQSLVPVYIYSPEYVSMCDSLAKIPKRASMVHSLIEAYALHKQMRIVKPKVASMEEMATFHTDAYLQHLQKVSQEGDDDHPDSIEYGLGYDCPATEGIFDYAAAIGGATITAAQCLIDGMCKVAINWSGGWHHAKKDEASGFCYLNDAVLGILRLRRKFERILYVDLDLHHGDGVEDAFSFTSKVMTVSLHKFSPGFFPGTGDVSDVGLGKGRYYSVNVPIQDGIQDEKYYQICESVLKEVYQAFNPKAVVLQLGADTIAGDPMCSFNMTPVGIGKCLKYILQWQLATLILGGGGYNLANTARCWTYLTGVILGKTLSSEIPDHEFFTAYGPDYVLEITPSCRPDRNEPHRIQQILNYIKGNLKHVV

Sequence of Histone deacetylase 1 (Q13547 whole entry): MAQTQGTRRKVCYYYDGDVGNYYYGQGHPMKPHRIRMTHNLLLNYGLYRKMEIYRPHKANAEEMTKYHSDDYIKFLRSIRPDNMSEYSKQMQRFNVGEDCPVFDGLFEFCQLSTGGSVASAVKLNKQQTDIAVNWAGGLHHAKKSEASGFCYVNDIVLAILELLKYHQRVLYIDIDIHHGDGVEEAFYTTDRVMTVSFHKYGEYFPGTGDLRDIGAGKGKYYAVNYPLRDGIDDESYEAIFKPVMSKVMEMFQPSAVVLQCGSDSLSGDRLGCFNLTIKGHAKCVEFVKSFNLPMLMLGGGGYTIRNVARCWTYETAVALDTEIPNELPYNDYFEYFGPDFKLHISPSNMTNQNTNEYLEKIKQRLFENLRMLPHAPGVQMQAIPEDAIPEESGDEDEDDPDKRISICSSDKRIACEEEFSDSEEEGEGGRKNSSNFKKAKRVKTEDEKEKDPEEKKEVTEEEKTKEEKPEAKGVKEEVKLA

SMILES	IC50 [1] [nM]	IC50 [2] [nM]	Activity [3] [%]	IC50 [4] [nM]	IC50 [5] [nM]	Activity [6] [%]	Activity [7]	Activity [8]	IC50 [9] [nM]
Nc1ccccc1NC(=O)c1ccc(-c2ncc(CNc3ccccc3)s2)cc1	1340	510	13.2	960	> 10000	29.59	Active	Active	> 10000
CCCNNC(=O)c1ccc(CNC(=O)c2ncc(CNc3ccccc3)s2)cc1	1200	730	31.49	240	> 10000	71.07	Active	Active	> 10000
